Measured values: patent US9963461B2, “Phillygenin ibuprofen ester, preparation method therefor, and application thereof” (priority 2014, dated 2018)
Where two headings read alike, the source gives them in different places. Marks after values point to notes of the source that are not given here.

What was measured:
[1] = test system: respiratory syncytial virus (RSV); test: Impact of the drugs on the virus-induced cytopathy (MTT); format: cell-based; conditions: RSV 100 TCID50, Vero cells, about the maximal non-cytotoxic concentration, 72 hours
[2] = test system: Adenovirus (AdV); test: as above; format: cell-based; conditions: ADV 100 TCID50, Vero cells, about the maximal non-cytotoxic concentration, 72 hours
[3] = test system: sweat gland epithelial cells at the rat toe part; test: Sweat secretion of rat paw part (tissue morphology observation method); format: in vivo, Wistar rats; conditions: for Number of sweat glands of vacuole / Void fraction (%): rat toe part
Description: This test was based on the mechanism that when rat sweat gland is excited, in addition to sweat secretion increase, the morphology of sweat gland epithelial cell is also changed. The number increase and expansion of empty cells of the sweat gland epithelial cells can be seen under the optical microscope. Such enlarged vacuole presents mitochondrial in sweat gland epithelial cells swelling, rupture, fusion and secretory vesicle enlargement under the electron microscope, and through the morphological observation of the sweat gland epithelial cell at the rat paw part, the secretory activity of the sweat gland can be known. In the test, 70 Wistar rats were selected, with equal male and female number, weighing 120-160 g. […] Besides that subcutaneous injection was used for the pilocarpine solution, intragastric administration was used for all the other groups.

[4] = test system: rabbit fever induced by typhoid and paratyphoid vaccine; test: Rabbit fever induced by typhoid and paratyphoid vaccine; format: in vivo, Japanese white rabbits
Procedure: Japanese male big-ear white rabbits, weighing 1.5-2.0 kg. Before the test, WSC-411P portable digital thermometer was used to measure the normal rectal temperature twice (with certain interval for each time), and the average value was taken as the normal body temperature. Then 48 Japanese big-ear white rabbits with body temperature of 38-39.6° C. were selected and randomly divided into 8 groups by weight, namely: the blank control (normal saline) group, the model control (0.5% carboxymethylcellulose) group, the ibuprofen group (300 mg/kg), the phillygenin group (10 mg/kg), the 1.25, 2.5, and 5 mg/kg phillygenin ibuprofen ester groups and the positive drug paracetamol (50 mg/kg) group. The rabbits were fixed in a fixator. The blank control group was intravenously injected with normal saline of 1 ml/kg via the ear margin; The model control group and the drug groups were intravenously injected with typhoid and paratyphoid vaccines of 0.8 ml/kg via the ear margin. When the body temperature rise of the rabbits was greater than 1° C. (requiring about 1-1.5 h, which was restricted to 1 h in this test), the blank control group and the model group were administered intragastrically with 0.5% carboxymethycellulose of 1 ml/kg, and the drug groups were administered intragastrically with phillygenin ibuprofen ester and paracetamol. […]

[5] = test system: mice pain induced by acetic acid; test: Analgesic test, mice writhing induced by acetic acid; format: in vivo, Kunming mice; conditions: for Writhing times: within 15 min after 0.7% acetic acid
Procedure: 72 Kunming mice were randomly divided into 6 groups, with 12 mice for each group. (1) the blank normal control group (i.e. saline group, […]); (2) positive drug aspirin group (200 mg/kg); (3) ibuprofen group (300 mg/kg); (4) high dose group of phillygenin ibuprofen ester (300 mg/kg); (5) medium dose group of phillygenin ibuprofen ester (150 mg/kg); (6) low dose group of phillygenin ibuprofen ester (75 mg/kg). […] The number of mice writhings within 15 min after administration was recorded. The number of writhings was taken as the evaluation index to evaluate the analgesic effect.

[6] = test system: influenza virus; format: in vivo, Kunming mice; conditions: for Lung index (X ± S) / Lung index Inhibitive rate (%): influenza virus infected mice, 5 days
[7] = test system: parainfluenza virus; format: in vivo, Kunming mice; conditions: for Lung index (X ± S) / Lung index Inhibitive rate (%): parainfluenza virus infected mice, 5 days
[8] = test system: influenza virus; format: in vivo, Kunming mice; conditions: lung suspensions, influenza virus infected mice, 5 days
[9] = test system: parainfluenza virus; format: in vivo, Kunming mice; conditions: mouse, in vivo
[10] = test system: influenza and parainfluenza virus induced pneumonia; test: Histomorphology observation of lung; format: in vivo, Kunming mice; conditions: high dosage and medium dosage groups, Day 5 after treatment
Procedure: On Day 5 after treatment, the lungs of mice in each group were picked, and general pathological changes of their viscera are observed by naked eyes and are recorded. The lungs were rinsed with normal saline and moisture thereon is sucked up by using filter paper, a part of the lung was fixed with 10% formaldehyde and embedded with paraffin and sliced, and the lung tissue slices were stained with HE, followed by observation and photographing under a microscope.

[11] = Solubility; format: physicochemical
[12] = test system: Vero cell; test: Cytotoxicity test on Vero cell (MTT); conditions: 72 hours
[13] = 300 mg/kg, time after administration (min) 30
[14] = 300 mg/kg, time after administration (min) 60
[15] = 300 mg/kg, time after administration (min) 90
[16] = 300 mg/kg, time after administration (min) 120
[17] = 300 mg/kg, time after administration (min) 180
[18] = 1.25 mg/kg, time after administration (min) 30
[19] = 1.25 mg/kg, time after administration (min) 60
[20] = 1.25 mg/kg, time after administration (min) 90
[21] = 1.25 mg/kg, time after administration (min) 120
[22] = 1.25 mg/kg, time after administration (min) 180
[23] = 2.5 mg/kg, time after administration (min) 30
[24] = 2.5 mg/kg, time after administration (min) 60
[25] = 2.5 mg/kg, time after administration (min) 90
[26] = 2.5 mg/kg, time after administration (min) 120
[27] = 2.5 mg/kg, time after administration (min) 180
[28] = 5.0 mg/kg, time after administration (min) 30
[29] = 5.0 mg/kg, time after administration (min) 90
[30] = 5.0 mg/kg, time after administration (min) 120
[31] = 5.0 mg/kg, time after administration (min) 180

## CC(C)Cc1ccc(C(C)C(=O)O)cc1 (centres unmarked) [Ibuprofen]
[1]
  antiviral effective rate (ER %): 80.88** %
[2]
  antiviral effective rate (ER %): 50.61%
[3]; 300.0 mg/kg intragastric
  Number of sweat glands of vacuole: 57
  Void fraction (%): 27.40*** %
[4]; [13]
  Body temperature (° C.): 40.74 ± 0.52 °C
  antipyretic percentage (%): −0.90 ± 0.41 %
[4]; [14]
  Body temperature (° C.): 40.56 ± 0.40 °C
  antipyretic percentage (%): −1.35 ± 0.11 %
[4]; [15]
  Body temperature (° C.): 40.07 ± 0.44 °C
  antipyretic percentage (%): −2.52 ± 0.13 %
[4]; [16]
  Body temperature (° C.): 39.88 ± 0.55 °C
  antipyretic percentage (%): −3.00 ± 0.23 %
[4]; [17]
  Body temperature (° C.): 39.77 ± 0.53 °C
  antipyretic percentage (%): −3.25 ± 0.29 %
[5]; 300 mg/kg intragastric
  Writhing times: 9.7*

## COc1ccc([C@H]2OCC3C2CO[C@H]3c2ccc(OC)c(OC(=O)C(C)c3ccc(CC(C)C)cc3)c2)cc1OC (some centres unmarked) [Phillygenin ibuprofen ester, phillygenin ibuprofen ester]
[1]
  antiviral effective rate (ER %): 87.74**^# %
[2]
  antiviral effective rate (ER %): 75.90**^## %
[6]; 4.0 mg/kg/d intragastric
  Lung index (X ± S): 1.222 ± 0.040
  Lung index Inhibitive rate (%): 17.90%
[6]; 8.0 mg/kg/d intragastric
  Lung index (X ± S): 1.190 ± 0.061
  Lung index Inhibitive rate (%): 20.05%
[6]; 13.0 mg/kg/d intragastric
  Lung index (X ± S): 1.147 ± 0.048
  Lung index Inhibitive rate (%): 22.94%
[6]; mouse, in vivo
  effect on average lung index vs infection model group: certain protective effect
[7]; mouse, in vivo
  effect on average lung index vs infection model group: certain protective effect
[7]; 3.25 mg/kg/d intragastric
  Lung index (X ± S): 1.320 ± 0.053
  Lung index Inhibitive rate (%): 17.01%
[7]; 13.0 mg/kg/d intragastric
  Lung index (X ± S): 1.237 ± 0.070
  Lung index Inhibitive rate (%): 22.25%
[8]; 3.25 mg/kg/d
  Hemagglutination titer (InX): 22.01 ± 1.420
  Hemagglutination titer Inhibitive rate (%): 32.07%
[8]; 13.0 mg/kg/d
  Hemagglutination titer (InX): 19.32 ± 0.624
  Hemagglutination titer Inhibitive rate (%): 40.36%
[9]; 3.25 mg/kg/day
  Hemagglutination titer (InX): 21.55 ± 0.857
  Hemagglutination titer Inhibitive rate (%): 34.90%
[9]; 13 mg/kg/day
  Hemagglutination titer (InX): 19.75 ± 0.902
  Hemagglutination titer Inhibitive rate (%): 40.34%
[10]
  lung lesions of mice (lung histology, HE): significantly alleviated
[3]; 5 and 10 mg/kg, p<0.01 or p<0.001
  effect on the sweat secretion of the rat toe part vs control group: obvious promoting effect
[3]; 2.5 mg/kg intragastric
  Number of sweat glands of vacuole: 20
  Void fraction (%): 8.47%
[3]; 5.0 mg/kg intragastric
  Number of sweat glands of vacuole: 42
  Void fraction (%): 32.11***; ^# %
[3]; 10.0 mg/kg intragastric
  Number of sweat glands of vacuole: 75
  Void fraction (%): 35.21***; ^## %
[4]; [18]
  Body temperature (° C.): 40.68 ± 0.41 °C
  antipyretic percentage (%): 0.98 ± 0.11%
[4]; [19]
  Body temperature (° C.): 40.61 ± 0.38 °C
  antipyretic percentage (%): −1.15 ± 0.15 %
[4]; [20]
  Body temperature (° C.): 40.50 ± 0.39 °C
  antipyretic percentage (%): −1.40 ± 0.20 %
[4]; [21]
  Body temperature (° C.): 40.29 ± 0.42 °C
  antipyretic percentage (%): −1.92 ± 0.31 %
[4]; [22]
  Body temperature (° C.): 40.10 ± 0.35 °C
  antipyretic percentage (%): −2.39 ± 0.43 %
[4]; [23]
  Body temperature (° C.): 40.83 ± 0.39 °C
  antipyretic percentage (%): −1.10 ± 0.00 %
[4]; [24]
  Body temperature (° C.): 40.37 ± 0.33 °C
  antipyretic percentage (%): −2.20 ± 0.05**^Δ▴▴ %
[4]; [25]
  Body temperature (° C.): 40.12 ± 0.21 °C
  antipyretic percentage (%): −2.81 ± 0.12 %
[4]; [26]
  Body temperature (° C.): 40.02 ± 0.20 °C
  antipyretic percentage (%): −3.06 ± 0.43 %
[4]; [27]
  Body temperature (° C.): 39.90 ± 0.25 °C
  antipyretic percentage (%): −3.35 ± 0.29 %
[4]; 5.0 mg/kg, 60 min after administration
  antipyretic percentage (%): −2.61 ± 0.10**^ΔΔ▴▴ %
[4]; [28]
  Body temperature (° C.): 40.57 ± 0.28 °C
  antipyretic percentage (%): −1.30 ± 0.11 %
[4]; 5.0 mg/kg, time after administration (min) 60
  Body temperature (° C.): 40.04 ± 0.20 °C
[4]; [29]
  Body temperature (° C.): 39.88 ± 0.23 °C
  antipyretic percentage (%): −2.98 ± 0.22 %
[4]; [30]
  Body temperature (° C.): 39.65 ± 0.20 °C
  antipyretic percentage (%): −3.54 ± 0.18***^Δ▴▴▴ %
[4]; [31]
  Body temperature (° C.): 39.42 ± 0.25 °C
  antipyretic percentage (%): −4.10 ± 0.17***^Δ▴▴ %
[4]; high and medium dose groups (5, 10 mg/kg) 30-240 min, low dose group (5 mg/kg) 60-240 min after administration
  effect on rabbit fever induced by the typhoid and paratyphoid vaccines vs model group: significant antipyretic effect
[5]; 75 mg/kg intragastric
  Writhing times: 15.8*
[5]; 150 mg/kg intragastric
  Writhing times: 6.5*
[5]; 300 mg/kg intragastric
  Writhing times: 3.9*^#
[5]; low, medium and high dose groups (75, 150, 300 mg/kg), P<0.01
  effect on mice pain induced by acetic acid vs blank control group: had analgesic effect
[11]
  solubility: soluble in methanol; chloroform, and dichloromethane
[12]
  Median toxic concentration (TC50): 485 mg/L
  maximal non-toxic concentration (TC0): 0.109 g/L
